From publication PMC8426238, “Synthesis and preclinical evaluation of [^11C]MTP38 as a novel PET ligand for phosphodiesterase 7 in the brain” (European Journal of Nuclear Medicine and Molecular Imaging, 2021)
“And” between values parts separate entries of the source, which are not always exact repeats. Identical values can stand only once.

Columns and labels:
[1] = molecular target: T1, Epidermal Growth Factor (EGF) (Homo sapiens, UniProt P00533); assay: off-target screen panel; assay type: binding; conditions: Human A431 cells, [^125I]EGF
T1 construct: purchased Eurofins Panlabs Discovery Services (Taiwan)

Dopamine D1 = molecular target: T2, Dopamine D1 (Homo sapiens, UniProt P21728); assay: off-target screen panel; assay type: binding; conditions: Human recombinant, [^3H]SCH-23390
T2 construct: purchased Eurofins Panlabs Discovery Services (Taiwan)

PDE1A = molecular target: T3, PDE1A (Homo sapiens, UniProt P54750); assay: PDE isozyme inhibition screen panel (Eurofins Panlabs); assay type: biochemical; conditions: 1 μM of MTP38; human recombinant; read-out: Percent inhibition
T3 construct: purchased Eurofins Panlabs Discovery Services (Taiwan)
Experimental: (§1) In vitro inhibitory effects of MTP38 on 12 PDE isozymes (PDE1A, 2A, 3A, 4B1, 5A, 6, 7A, 7B, 8A1, 9A2, 10A2, and 11A4) were determined using a commercial screen panel at Eurofins Panlabs Discovery Services (Taiwan). The enzyme source was bovine retinal rod outer segments for PDE6 or human recombinants for the others. The inhibition percentage at 1 μM or half-maximal inhibitory concentration (IC50) value was calculated. All assays were conducted in duplicate. For IC50 determination, three independent runs were performed.

PDE6 = molecular target: T4, PDE6 (Bos taurus, UniProt P11541+P23439); assay: as above; assay type: biochemical; conditions: 1 μM of MTP38; bovine retinal rod outer segments; read-out: Percent inhibition
T4 construct: The enzyme source was bovine retinal rod outer segments for PDE6; tissue Eurofins Panlabs Discovery Services (Taiwan); host or cells: bovine retinal rod outer segments
Experimental: as §1

PDE7B = molecular target: T5, PDE7B (Homo sapiens, UniProt Q9NP56); assay: as above; assay type: biochemical
T5 construct: purchased Eurofins Panlabs Discovery Services (Taiwan)
Experimental: as §1

PDE8A1 = molecular target: T6, PDE8A1 (Homo sapiens, UniProt O60658); assay: as above; assay type: biochemical; conditions: 1 μM of MTP38; human recombinant; read-out: Percent inhibition
T6 construct: purchased Eurofins Panlabs Discovery Services (Taiwan)
Experimental: as §1

PDE11A4 = molecular target: T7, PDE11A4 (Homo sapiens, UniProt Q9HCR9); assay: as above; assay type: biochemical; conditions: 1 μM of MTP38; human recombinant; read-out: Percent inhibition
T7 construct: purchased Eurofins Panlabs Discovery Services (Taiwan)
Experimental: as §1

PDE9A2 = molecular target: T8, PDE9A2 (Homo sapiens, UniProt O76083); assay: as above; assay type: biochemical; conditions: 1 μM of MTP38; human recombinant; read-out: Percent inhibition
T8 construct: purchased Eurofins Panlabs Discovery Services (Taiwan)
Experimental: as §1

PDE5A = molecular target: T9, PDE5A (Homo sapiens, UniProt O76074); assay: as above; assay type: biochemical; conditions: 1 μM of MTP38; human recombinant; read-out: Percent inhibition
T9 construct: purchased Eurofins Panlabs Discovery Services (Taiwan)
Experimental: as §1

PDE2A = molecular target: T10, PDE2A (Homo sapiens, UniProt O00408); assay: as above; assay type: biochemical; conditions: human recombinant; geometric mean of three independent experiments
T10 construct: purchased Eurofins Panlabs Discovery Services (Taiwan)
Experimental: as §1

PDE7A = molecular target: T11, PDE7A (Homo sapiens, UniProt Q13946); assay: as above; assay type: biochemical; conditions: human recombinant; geometric mean of three independent experiments
T11 construct: purchased Eurofins Panlabs Discovery Services (Taiwan)
Experimental: as §1

PDE3A = molecular target: T12, PDE3A (Homo sapiens, UniProt Q14432); assay: as above; assay type: biochemical; conditions: 1 μM of MTP38; human recombinant; read-out: Percent inhibition
T12 construct: purchased Eurofins Panlabs Discovery Services (Taiwan)
Experimental: as §1

PDE7 = assay: In vitro autoradiography of rat brain sections with [^11C]MTP38; assay type: binding, Sprague-Dawley rats; conditions: [^11C]MTP38 2 nM, unlabeled MTP38 10 μM, MTP-X 4 μM, MT-3014 40 nM
Experimental: In vitro autoradiography was performed using 20-μm-thick fresh-frozen brain sections derived from Sprague-Dawley rats and rhesus monkeys. The sections were preincubated for 10 min in 50 mM Tris-HCl buffer (pH 7.4) at room temperature. These samples were then incubated for 60 min at room temperature in fresh buffer containing [^11C]MTP38 (2 nM) with or without unlabeled MTP38 (10 μM), MTP-X (4 μM), or MT-3014 (40 nM). The concentrations of MTP-X and MT-3014 were more than 400-fold of reported IC50 values of these agents. After the incubation, the brain sections were immersed twice in cold buffer for 3 min, dipped in cold distilled water for 10 s, and dried with warm airflow. Then the sections were contacted with imaging plates (BAS-MS2025, Fujifilm, Tokyo, Japan) for 60 min. The imaging plates were scanned with an imaging plate reader (BAS5000, Fujifilm, Tokyo, Japan), and the images were analyzed with the MultiGuage software (ver. 3.0, Fujifilm, Tokyo, Japan).

Imidazoline I2, Central = assay: off-target screen panel; assay type: binding; conditions: Rat cerebral cortex, [^3H]Idazoxan
Bradykinin B1 = molecular target: T13, Bradykinin B1 (Homo sapiens, UniProt P46663); assay: off-target screen panel; assay type: binding; conditions: Human IMR-90 cells, [^3H](Des-Arg^10)-Kallidin
T13 construct: purchased Eurofins Panlabs Discovery Services (Taiwan)

[2] = molecular target: T14, Transporter, Norepinephrine (NET) (Homo sapiens, UniProt P23975); assay: off-target screen panel; assay type: binding; conditions: Human recombinant, [^125I]RTI-55
T14 construct: purchased Eurofins Panlabs Discovery Services (Taiwan)

Muscarinic M2 = molecular target: T15, Muscarinic M2 (Homo sapiens, UniProt P08172); assay: off-target screen panel; assay type: binding; conditions: Human recombinant, [^3H]N-Methylscopolamine
T15 construct: purchased Eurofins Panlabs Discovery Services (Taiwan)

Endothelin ETA = molecular target: T16, Endothelin ETA (Homo sapiens, UniProt P25101); assay: off-target screen panel; assay type: binding; conditions: Human recombinant, [^125I]Endothelin-1
T16 construct: purchased Eurofins Panlabs Discovery Services (Taiwan)

Adenosine A1 = molecular target: T17, Adenosine A1 (Homo sapiens, UniProt P30542); assay: off-target screen panel; assay type: binding; conditions: Human recombinant, [^3H]DPCPX
T17 construct: purchased Eurofins Panlabs Discovery Services (Taiwan)

[3] = tested on: Glutamate, NMDA, Phencyclidine; assay: off-target screen panel; assay type: binding; conditions: Rat cerebral cortex, [^3H]TCP
Androgen (Testosterone) = molecular target: T18, Androgen (Testosterone) (Homo sapiens, UniProt P10275); assay: off-target screen panel; assay type: binding; conditions: Human LNCaP clone, [^3H]Methyltrienolone
T18 construct: purchased Eurofins Panlabs Discovery Services (Taiwan)

Muscarinic M3 = molecular target: T19, Muscarinic M3 (Homo sapiens, UniProt P20309); assay: off-target screen panel; assay type: binding; conditions: Human recombinant, [^3H]N-Methylscopolamine
T19 construct: purchased Eurofins Panlabs Discovery Services (Taiwan)

Dopamine D3 = molecular target: T20, Dopamine D3 (Homo sapiens, UniProt P35462); assay: off-target screen panel; assay type: binding; conditions: Human recombinant, [^3H]Spiperone
T20 construct: purchased Eurofins Panlabs Discovery Services (Taiwan)

Estrogen ERα = molecular target: T21, Estrogen ERα (Homo sapiens, UniProt P03372); assay: off-target screen panel; assay type: binding; conditions: Human recombinant, [^3H]Estradiol
T21 construct: purchased Eurofins Panlabs Discovery Services (Taiwan)

Solubility = assay type: physicochemical
Glucocorticoid = molecular target: T22, Glucocorticoid (Homo sapiens, UniProt P04150); assay: off-target screen panel; assay type: binding; conditions: Human recombinant, [^3H]Dexamethasone
T22 construct: purchased Eurofins Panlabs Discovery Services (Taiwan)

Calcium Channel N-Type = molecular target: T23, Calcium Channel N-Type (Rattus norvegicus, UniProt Q02294); assay: off-target screen panel; assay type: binding; conditions: read-out: Inhibition (%) at 1 μM
T23 construct: purchased Eurofins Panlabs Discovery Services (Taiwan)

Opiate δ1 (OP1, DOP) = molecular target: T24, Opiate δ1 (OP1, DOP) (Homo sapiens, UniProt P41143); assay: off-target screen panel; assay type: binding; conditions: Human recombinant, [^3H]Naltrindole
T24 construct: purchased Eurofins Panlabs Discovery Services (Taiwan)

Muscarinic M1 = molecular target: T25, Muscarinic M1 (Homo sapiens, UniProt P11229); assay: off-target screen panel; assay type: binding; conditions: Human recombinant, [^3H]N-Methylscopolamine
T25 construct: purchased Eurofins Panlabs Discovery Services (Taiwan)
T25 sequence (P11229 whole entry): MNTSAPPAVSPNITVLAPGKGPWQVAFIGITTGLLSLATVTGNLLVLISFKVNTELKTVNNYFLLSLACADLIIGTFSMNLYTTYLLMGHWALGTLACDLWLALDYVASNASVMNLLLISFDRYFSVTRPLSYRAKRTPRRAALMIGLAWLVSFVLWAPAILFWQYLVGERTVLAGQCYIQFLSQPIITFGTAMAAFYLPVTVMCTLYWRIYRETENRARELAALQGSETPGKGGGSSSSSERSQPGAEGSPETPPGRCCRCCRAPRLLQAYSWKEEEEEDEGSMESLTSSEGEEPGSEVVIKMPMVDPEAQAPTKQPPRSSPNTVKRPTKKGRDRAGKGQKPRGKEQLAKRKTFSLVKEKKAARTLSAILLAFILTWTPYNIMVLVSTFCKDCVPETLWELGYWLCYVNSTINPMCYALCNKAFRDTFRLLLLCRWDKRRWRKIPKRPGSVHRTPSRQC

T10 sequence (O00408 whole entry): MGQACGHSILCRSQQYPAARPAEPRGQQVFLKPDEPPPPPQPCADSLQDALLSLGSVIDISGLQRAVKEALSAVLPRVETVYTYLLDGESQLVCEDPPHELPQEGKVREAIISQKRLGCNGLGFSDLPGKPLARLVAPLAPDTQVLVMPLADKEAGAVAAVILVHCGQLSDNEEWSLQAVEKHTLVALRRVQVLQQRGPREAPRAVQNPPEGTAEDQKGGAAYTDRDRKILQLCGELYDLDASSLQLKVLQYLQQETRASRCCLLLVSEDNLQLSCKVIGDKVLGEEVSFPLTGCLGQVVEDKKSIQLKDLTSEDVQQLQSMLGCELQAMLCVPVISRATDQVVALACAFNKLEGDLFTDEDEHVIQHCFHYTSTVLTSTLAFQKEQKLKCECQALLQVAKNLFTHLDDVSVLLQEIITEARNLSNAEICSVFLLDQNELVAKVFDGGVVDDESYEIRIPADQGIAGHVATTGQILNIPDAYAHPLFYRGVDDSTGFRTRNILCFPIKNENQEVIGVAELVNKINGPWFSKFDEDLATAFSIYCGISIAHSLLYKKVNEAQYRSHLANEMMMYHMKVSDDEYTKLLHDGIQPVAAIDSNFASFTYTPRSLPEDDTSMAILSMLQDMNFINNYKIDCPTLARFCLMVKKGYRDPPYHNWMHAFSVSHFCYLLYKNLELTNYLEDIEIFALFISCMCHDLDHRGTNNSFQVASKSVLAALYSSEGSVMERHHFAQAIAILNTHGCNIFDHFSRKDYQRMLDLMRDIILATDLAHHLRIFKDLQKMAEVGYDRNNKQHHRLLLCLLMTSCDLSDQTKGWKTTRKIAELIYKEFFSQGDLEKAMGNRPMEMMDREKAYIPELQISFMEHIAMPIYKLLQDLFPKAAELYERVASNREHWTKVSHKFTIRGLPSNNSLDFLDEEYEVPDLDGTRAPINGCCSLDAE
T5 sequence (Q9NP56 whole entry): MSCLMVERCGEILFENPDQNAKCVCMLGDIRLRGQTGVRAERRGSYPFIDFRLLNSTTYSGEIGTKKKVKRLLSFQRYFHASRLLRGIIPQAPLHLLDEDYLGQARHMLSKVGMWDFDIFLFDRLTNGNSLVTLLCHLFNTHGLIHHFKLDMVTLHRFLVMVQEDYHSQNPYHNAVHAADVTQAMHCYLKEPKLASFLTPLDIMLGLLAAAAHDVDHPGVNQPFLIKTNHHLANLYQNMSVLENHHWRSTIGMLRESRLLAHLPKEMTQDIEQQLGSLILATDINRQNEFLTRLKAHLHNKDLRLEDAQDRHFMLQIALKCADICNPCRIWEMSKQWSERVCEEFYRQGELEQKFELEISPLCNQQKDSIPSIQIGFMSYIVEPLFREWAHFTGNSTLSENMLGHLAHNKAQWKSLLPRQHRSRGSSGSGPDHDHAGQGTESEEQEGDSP
T8 sequence (O76083 1-533 isoform O76083-2): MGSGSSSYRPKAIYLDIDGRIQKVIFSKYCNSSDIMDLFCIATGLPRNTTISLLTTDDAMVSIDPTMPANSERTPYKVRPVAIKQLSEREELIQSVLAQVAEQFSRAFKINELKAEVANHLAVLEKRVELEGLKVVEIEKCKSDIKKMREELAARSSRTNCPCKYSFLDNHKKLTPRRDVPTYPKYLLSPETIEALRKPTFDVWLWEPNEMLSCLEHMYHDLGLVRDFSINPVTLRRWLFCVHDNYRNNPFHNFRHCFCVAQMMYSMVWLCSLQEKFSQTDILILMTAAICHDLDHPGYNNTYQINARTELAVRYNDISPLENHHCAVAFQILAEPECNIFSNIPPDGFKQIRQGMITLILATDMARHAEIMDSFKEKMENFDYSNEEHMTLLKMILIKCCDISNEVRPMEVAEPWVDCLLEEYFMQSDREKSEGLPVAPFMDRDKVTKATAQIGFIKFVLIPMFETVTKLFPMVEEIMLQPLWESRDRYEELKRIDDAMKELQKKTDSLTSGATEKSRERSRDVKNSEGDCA
T12 sequence (Q14432 whole entry): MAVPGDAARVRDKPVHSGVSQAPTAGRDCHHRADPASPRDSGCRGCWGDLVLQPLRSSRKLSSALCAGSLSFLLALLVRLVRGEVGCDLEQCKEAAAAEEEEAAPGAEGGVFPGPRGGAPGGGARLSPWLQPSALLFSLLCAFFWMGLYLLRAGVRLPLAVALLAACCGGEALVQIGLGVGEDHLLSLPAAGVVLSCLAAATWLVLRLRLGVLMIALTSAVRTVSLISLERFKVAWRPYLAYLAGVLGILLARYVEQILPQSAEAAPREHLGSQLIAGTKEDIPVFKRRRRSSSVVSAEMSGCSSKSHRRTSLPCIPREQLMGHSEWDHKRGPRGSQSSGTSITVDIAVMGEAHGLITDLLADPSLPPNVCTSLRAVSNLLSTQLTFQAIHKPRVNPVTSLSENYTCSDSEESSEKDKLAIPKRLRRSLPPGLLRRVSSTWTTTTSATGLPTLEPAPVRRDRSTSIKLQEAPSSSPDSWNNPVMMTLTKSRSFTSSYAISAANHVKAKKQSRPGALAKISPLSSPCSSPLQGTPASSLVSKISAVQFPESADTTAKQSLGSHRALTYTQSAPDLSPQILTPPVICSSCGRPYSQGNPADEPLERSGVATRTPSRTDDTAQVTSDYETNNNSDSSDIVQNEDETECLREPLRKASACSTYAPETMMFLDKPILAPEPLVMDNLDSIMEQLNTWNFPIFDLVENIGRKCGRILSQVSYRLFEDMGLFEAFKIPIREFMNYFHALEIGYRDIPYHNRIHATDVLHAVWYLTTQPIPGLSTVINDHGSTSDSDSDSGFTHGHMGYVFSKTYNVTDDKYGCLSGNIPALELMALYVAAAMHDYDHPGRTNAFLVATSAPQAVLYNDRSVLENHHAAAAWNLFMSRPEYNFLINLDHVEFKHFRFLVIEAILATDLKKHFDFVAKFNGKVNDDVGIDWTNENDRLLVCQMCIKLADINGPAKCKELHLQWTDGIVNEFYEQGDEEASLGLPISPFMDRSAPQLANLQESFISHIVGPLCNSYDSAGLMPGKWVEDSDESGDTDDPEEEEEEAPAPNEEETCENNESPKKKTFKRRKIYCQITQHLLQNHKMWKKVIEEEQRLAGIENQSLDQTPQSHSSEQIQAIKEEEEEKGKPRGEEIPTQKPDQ
T22 sequence (P04150 whole entry): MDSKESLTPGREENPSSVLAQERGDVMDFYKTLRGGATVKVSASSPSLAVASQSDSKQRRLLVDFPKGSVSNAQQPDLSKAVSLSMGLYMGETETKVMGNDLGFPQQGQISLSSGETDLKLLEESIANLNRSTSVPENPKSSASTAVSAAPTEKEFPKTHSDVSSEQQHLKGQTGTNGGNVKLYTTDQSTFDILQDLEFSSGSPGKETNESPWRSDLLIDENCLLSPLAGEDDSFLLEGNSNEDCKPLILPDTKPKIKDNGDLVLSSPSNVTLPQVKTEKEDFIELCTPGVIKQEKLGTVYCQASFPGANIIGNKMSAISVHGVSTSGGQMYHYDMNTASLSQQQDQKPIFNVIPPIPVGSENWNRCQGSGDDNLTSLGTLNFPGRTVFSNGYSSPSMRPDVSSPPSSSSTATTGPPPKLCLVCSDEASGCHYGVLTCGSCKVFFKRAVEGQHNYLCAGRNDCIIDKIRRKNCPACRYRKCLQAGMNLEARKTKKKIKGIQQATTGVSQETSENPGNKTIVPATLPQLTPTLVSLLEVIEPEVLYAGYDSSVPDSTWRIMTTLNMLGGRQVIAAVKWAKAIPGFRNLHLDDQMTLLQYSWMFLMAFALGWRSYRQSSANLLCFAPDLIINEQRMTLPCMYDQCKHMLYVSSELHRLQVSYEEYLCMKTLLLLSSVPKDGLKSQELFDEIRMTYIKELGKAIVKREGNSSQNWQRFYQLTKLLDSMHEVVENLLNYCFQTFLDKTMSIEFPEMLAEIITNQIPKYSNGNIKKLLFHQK
T21 sequence (P03372 whole entry): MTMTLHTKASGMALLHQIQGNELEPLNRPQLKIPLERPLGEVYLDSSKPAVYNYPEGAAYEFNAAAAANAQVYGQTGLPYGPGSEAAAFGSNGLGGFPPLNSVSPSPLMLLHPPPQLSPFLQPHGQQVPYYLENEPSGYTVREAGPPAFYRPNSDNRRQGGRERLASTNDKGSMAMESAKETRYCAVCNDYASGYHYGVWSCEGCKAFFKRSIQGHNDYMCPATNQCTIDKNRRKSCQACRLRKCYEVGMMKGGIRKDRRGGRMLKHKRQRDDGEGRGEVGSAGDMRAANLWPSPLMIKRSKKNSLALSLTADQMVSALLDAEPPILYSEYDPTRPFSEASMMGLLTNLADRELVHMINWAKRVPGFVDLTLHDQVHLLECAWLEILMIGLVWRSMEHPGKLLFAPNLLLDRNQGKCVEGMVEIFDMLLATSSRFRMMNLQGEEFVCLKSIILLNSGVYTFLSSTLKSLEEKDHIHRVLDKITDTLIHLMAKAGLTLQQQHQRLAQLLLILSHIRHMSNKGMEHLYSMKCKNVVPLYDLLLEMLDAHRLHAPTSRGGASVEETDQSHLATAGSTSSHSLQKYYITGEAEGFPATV

## C[C@@H]1CC[C@H](C)N(c2nnc3c(N)ncc(C#N)n23)C1 (relative stereo) [MTP38, 8-amino-3-(2S*,5R*-dimethyl-1-piperidyl)-[1,2,4]triazolo[4,3-a]pyrazine-5-carbonitrile]
[1]
  inhibition at 1 µM: 1%
Dopamine D1
  inhibition at 1 µM: -14%
PDE1A
  inhibition at 1 µM: < 50%
PDE6
  inhibition at 1 µM: < 50%
PDE7B; from IC50 1.21 nM, [S] 100 nM, Km 30–70 nM, read-out: Ki estimated by Cheng-Prusoff equation
  Ki: 0.28 to 0.5 nM
PDE7B; human recombinant, geometric mean of three independent experiments
  IC50: 1.21 nM
PDE8A1
  inhibition at 1 µM: < 50%
PDE11A4
  inhibition at 1 µM: < 50%
PDE9A2
  inhibition at 1 µM: < 50%
PDE5A
  inhibition at 1 µM: < 50%
PDE2A
  IC50: > 100 nM and 114 nM
PDE7A
  IC50: 9.81 nM
PDE3A
  inhibition at 1 µM: < 50%
PDE7
  effect of blocker on striatal radioactivity of [^11C]MTP38: reduced the striatal radioactivity
Imidazoline I2, Central
  Inhibition (%) at 1 μM: -8%
Bradykinin B1
  inhibition at 1 µM: 9%
[2]
  inhibition at 1 µM: 6%
Muscarinic M2
  inhibition at 1 µM: -9%
Endothelin ETA
  inhibition at 1 µM: -10%
Adenosine A1
  inhibition at 1 µM: -12%
[3]
  Inhibition (%) at 1 μM: -5%
Androgen (Testosterone)
  inhibition at 1 µM: 1%
Muscarinic M3
  inhibition at 1 µM: -21%
Dopamine D3
  inhibition at 1 µM: 0%
Estrogen ERα
  inhibition at 1 µM: -1%
Solubility
  solubility: low solubility
Glucocorticoid
  inhibition at 1 µM: 0%
Calcium Channel N-Type
  inhibition at 1 µM: 1%
Opiate δ1 (OP1, DOP)
  inhibition at 1 µM: -4%
Muscarinic M1
  inhibition at 1 µM: -20%
